# Experiment: Fluorescence intensity of NBD-GGBP-CMC in presence and absence of glucose
# Type: biochemical
# Conditions: 100 nM preparation, 20 mM glucose; FIG. 6
# Procedure: Covalent attachment was performed by activating carboxymethyl groups on the hydrogel polymer (CMC) with a mixture of N-hydroxysuccinimide (NHS) and N-ethyl-N′-(dimethylaminopropyl) carbodiimide (EDC). This forms an intermediate that is reactive to amines. NHS (100 mM) and EDC (400 mM) in water were mixed in a 1:1 vol:vol ratio. An equal volume of hydrogel polymer (25 mg/mL CMC in H2O) and the EDC/NHS mixture were combined, and incubated at room temperature for 15 to 30 minutes. The unreacted EDC and NHS were removed from the hydrogel polymer by eluting the polymer from a NAP-5 column. Varying amounts of activated hydrogel polymer were combined with the fluorescently-labeled GGBP (in this example, the NBD-A213C/L238C-GGBP-His6 mutant). The activated hydrogel polymer and protein were gently mixed, at room temperature, for 1 to 2 hours. […] An absorbance scan of solution not retained by the 100 kDa filter indicated no unattached protein remained. […] Activity of the NBD-GGBP-CMC was determined by fluorescence intensity measurement of the NBD-GGBP-CMC in the presence of high concentration glucose (20 mM) and in the absence of glucose. Thus, 100 nM preparations of the NBD-GGBP-CMC, as well as unattached NBD-GGBP (control) were measured before and after the addition of glucose (FIG. 6). […]
substance,measurement,value
NBD-GGBP-CMC: NBD-labeled GGBP randomly covalently attached to carboxymethyl cellulose hydrogel polymer via EDC/NHS,signal in the presence of glucose compared to the absence of glucose,strong signal

# From US20040234962A1, “Multicoated or multilayer entrapment matrix for protein biosensor” (priority 2003, published 2004)
